Measurements published in patent publication US8114862B2, “TGR5 modulators and methods of use thereof” (Intercept Pharmaceuticals, Inc., priority 2008, dated 2012).

Assays:
[1] = tested on: NCI-H716 cells; experiment: NCI-H716 cell experiments (ATP, intracellular calcium, GLP-1 release); type: cell-based, human
[2] = tested on: TGR5+/+ and TGR5-/- mice; experiment: Plasma GLP-1 after oral glucose challenge in TGR5+/+ and TGR5-/- mice; type: in vivo, mouse; details: for GLP-1 release after a glucose challenge: TGR5+/+ mice
Method: (§1) Animals were housed and bred according to standardized procedures (Argmann and Auwerx, 2006b). Age-matched male mice were used for all experiments. Genetically engineered mouse models (GEMMs), i.e., TGR5-Tg and TGR5^−/− mice, were generated as described in the Supplemental Data. […]; Research Diets) for at least 8 weeks, as mentioned in the text and figure legends. […] Mouse phenotyping experiments were performed according to EMPRESS protocols (see, for example, Empress (European Mouse Phenotyping Resource of Standardised Screening) website) and were aimed to assess food and water intake, body composition (Argmann et al., 2006a, Curr. Protoc. Mol. Biol. Chapter 29, Unit 29A, 23), energy expenditure (Argmann et al., 2006a, Curr. Protoc. Mol. Biol. Chapter 29, Unit 29A, 23), glucose and lipid homeostasis (Argmann et al., 2006b, Curr. Protoc. Mol. Biol. Chapter 29, Unit 29A, 22); Heikkinen et al., 2007, Curr. Protoc. Mol. Chapter. 29, Unit 29B, 23; Mataki et al., 2007, Mol. Cell. Biol. 27, 8330), and plasma biochemistry (Argmann and Auwerx, 2006a, Curr. Protoc. Mol. Biol. Chapter 29, Unit 29A, 22). Tissues and blood were collected and processed for histopathology, blood chemistry, and gene expression according to standardized procedures (Argmann and Auwerx, 2006a; Feige et al., 2008b; Mark et al., 2007; Watanabe et al., 2006). Hyperinsulinemic euglycemic clamp studies were performed as described (Feige et al., 2008b), with minor modifications including a change in the initial insulin bolus (30 mU/kg) and insulin infusion rate (10 mU/min/kg). Plasma GLP-1 levels were measured by ELISA (Millipore) on blood collected by retro-orbital puncture. […].
To further establish a role of TGR5 signaling in the maintenance of glucose homeostasis, we assessed the glucose tolerance of germline TGR5-deficient mice (TGR5^−/−), generated by breeding mice in which the TGR5 allele was floxed with CMV-Cre transgenic mice. […].

[3] = tested on: HF-fed C57BL/6J mice; experiment: Dietary intervention in HF-fed C57BL/6J mice (Example 20); type: in vivo, mouse
Method: Age-matched male mice were used for all experiments. Genetically engineered mouse models (GEMMs), i.e., TGR5-Tg and TGR5^−/− mice, were generated as described in the Supplemental Data. […] Protoc. Mol. Chapter. […] Protoc. Mol. Biol. Chapter 29, Unit 29A, 22). […] Plasma GLP-1 levels were measured by ELISA (Millipore) on blood collected by retro-orbital puncture.

[4] = tested on: DIO and db/db mice; experiment: Glucose homeostasis and insulin sensitivity in DIO and db/db mice (Example 21); type: in vivo, mouse
Method: as §1
To further characterize the impact of compound Ih3e on glucose homeostasis and insulin sensitivity, a hyperinsulinemic euglycemic glucose clamp was performed on these DIO mice. […]. These effects correlated with normalization in the expression of key genes involved in hepatic glucose homeostasis (FIG. 21G).

[5] = target: T1, PPARδ (Homo sapiens, UniProt Q03181); experiment: PPARδ coactivator recruitment assay
T1 sequence (Q03181 211-439 limits assumed): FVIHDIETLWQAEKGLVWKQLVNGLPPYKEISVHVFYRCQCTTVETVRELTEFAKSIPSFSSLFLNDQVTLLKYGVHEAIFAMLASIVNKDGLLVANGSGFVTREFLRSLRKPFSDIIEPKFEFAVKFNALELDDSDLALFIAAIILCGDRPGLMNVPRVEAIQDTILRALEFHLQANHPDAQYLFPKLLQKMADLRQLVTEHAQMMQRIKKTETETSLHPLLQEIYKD
Method: Lanthascreen assay (Invitrogen) was used for nulear receptor selectivity assay. The kit uses a terbium-labeled anti-GST antibody, a fluorescein-labeled coactivator peptide, and a NR ligand-binding domain that is tagged with glutathione-S-transferase (GST) in a homogenous mix-and-read assay format. […] Following 1 hour incubation in the dark, TR-FRET measurements were made in the Envision. […] The data was analyzed using GraphPad Prism using the sigmoidal curve equation with variable slope to obtain EC50 values.

[6] = target: PXR (Homo sapiens, UniProt O75469); experiment: PXR ligands competition assay (binding assay)
[7] = Biliary secretion and metabolism in bile fistula rat, id and iv infusion; details: for Conc. / Secretion: rat bile; for fraction unbound at 4 h: rat, in vivo, 1 μmol/kg/min
[8] = duodenal infusion 75-135 min, time 90 min
[9] = duodenal infusion 75-135 min, time 120 min
[10] = duodenal infusion 75-135 min, time 150 min
[11] = duodenal infusion 75-135 min, time 180 min
[12] = duodenal infusion 75-135 min, time 210 min
[13] = duodenal infusion 75-135 min, time 240 min
[14] = duodenal infusion 75-135 min, time 270 min
[15] = duodenal infusion 75-135 min, time 300 min
[16] = femoral infusion 75-135 min, time 90 min
[17] = femoral infusion 75-135 min, time 120 min
[18] = femoral infusion 75-135 min, time 150 min
[19] = femoral infusion 75-135 min, time 180 min
[20] = femoral infusion 75-135 min, time 210 min
[21] = femoral infusion 75-135 min, time 240 min
[22] = femoral infusion 75-135 min, time 270 min

Sequence of PXR (O75469 whole entry, species assumed, the tested form may be a part): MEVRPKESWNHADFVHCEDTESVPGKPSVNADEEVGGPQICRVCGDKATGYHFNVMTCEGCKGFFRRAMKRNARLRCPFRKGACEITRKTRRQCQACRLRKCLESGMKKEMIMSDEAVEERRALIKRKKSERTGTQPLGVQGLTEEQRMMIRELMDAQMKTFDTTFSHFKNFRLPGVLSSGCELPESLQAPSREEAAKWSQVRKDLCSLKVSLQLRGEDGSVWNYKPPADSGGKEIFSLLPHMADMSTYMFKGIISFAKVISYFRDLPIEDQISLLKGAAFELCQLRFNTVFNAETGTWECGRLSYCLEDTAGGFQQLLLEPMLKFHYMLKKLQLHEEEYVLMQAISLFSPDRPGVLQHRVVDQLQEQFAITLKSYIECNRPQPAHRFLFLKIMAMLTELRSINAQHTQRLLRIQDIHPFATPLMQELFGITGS

With `CC[C@H]1[C@@H](O)[C@@H]2[C@H](C[C@H](O)[C@]3(C)[C@@H]([C@H](C)C[C@H](C)C(=O)O)CC[C@@H]23)[C@@]2(C)CC[C@@H](O)C[C@@H]12` [Ih3e, 6α-ethyl-(23S)-methyl-3α,7α,12α trihydroxy-5β-cholan-24-oic acid] the ATP production ([1]; NCI-H716) was “increased ATP production in a cAMP-dependent manner”, the calcium influx ([1]; NCI-H716) was “robustly increased calcium influx” and the GLP-1 release ([1]; NCI-H716, with glucose) was “rise in GLP-1 release”. The “GLP-1 release after a glucose challenge” value ([2]; DPP4 inhibitor sitagliptin coadministered) was “markedly more pronounced”, the “GLP-1 release after a glucose challenge” value ([2]; preadministration 30 mg/kg oral) was “moderately increased GLP-1 release” and the “effects on plasma GLP-1 levels” value ([2]; TGR5-/- mice) was “blunted”. For the same compound, the “expression level of classical target genes of FXR in the liver (CYP7A1, BSEP)” value ([3]; 30 mg/kg/day) was “complete absence of changes”, the plasma levels ([3]; 30 mg/kg/day admixed with diet) was “within the range of those of CA and 3-muricholic acid” and the “increase in liver and fat pad mass” value ([3]; HF-fed) was “attenuated”. The “plasma triglycerides and nonesterified fatty acids (NEFAs)” value ([3]; HF-fed mice) was “significant drop”, the fat mass ([3]; HF-fed, relative to HF-fed controls) was “sharp reduction in fat mass” and the liver fibrosis ([3]; Sirius red staining) was “absence of liver fibrosis”. For the same compound, the “attenuation of body weight gain” value ([3]; after 10 weeks of treatment, relative to HF-fed controls) was “about 15%”, the “plasma levels of liver enzymes” value ([3]; compared to HF-fed controls) was “markedly reduced” and the respiratory quotient ([3]; dark period) was “significantly reduced”. The “energy expenditure (O2 consumption and CO2 production)” value ([3]; indirect calorimetry) was “enhanced energy expenditure”, the “gene expression profiling of BAT” value ([3]; mouse, in vivo) was “increase of several mitochondrial genes involved in energy expenditure” and the liver steatosis ([3]; oil red O staining, liver lipid content) was “reduction in liver steatosis”. The “fasting glucose and insulin levels” value ([4]; DIO and db/db mice) was “decreased”, the “glucose-stimulated insulin secretion profile” value ([4]; DIO and db/db mice) was “improvement” and the “glucose tolerance after an oral challenge with glucose” value ([4]; DIO and db/db mice, 30 mkd) was “robustly improved glucose tolerance”. For the same compound, the “glucose infusion rate required to maintain euglycemia” value ([4]; DIO mice, hyperinsulinemic euglycemic clamp) was “virtually identical to that observed in CD-fed control mice”, the body weight ([4]; HF-fed C57BL6/J mice, 30 mg/kg/d for 8 weeks) was 32.26 ± 0.95 g and the “hepatic glucose production, glucose disposal rate, suppression of glucose production by insulin” value ([4]; HF-fed mice, clamp) was “normalized these parameters to the values observed in CD-fed mice”. For the same compound, the “insulin-stimulated 14C-deoxyglucose uptake” value ([4]; clamp) was “reduced insulin resistance in liver and muscle”, the “expression of key genes involved in hepatic glucose homeostasis” value ([4]; mouse, in vivo) was “normalization” and the “PPARδ Activation EC50” value [5] was “No activity”. For the same compound, the IC50 [6] was 110 µM, the “compound secreted into the bile in its unconjugated form” value ([7]; after intravenous or intraduodenal infusion) was “more than 90%” and the biliary secretion ([7]; after iv administration) was “efficient”. The “recovery in bile after id administration” value ([7]; id vs iv) was “slightly lower than the recovery after iv administration”, the Conc. [7, 8] was 0.007 mmol/L and the Secretion [7, 8] was 0.0003 µmol/kg/min. It also gave a Conc. [7, 9] of 0.69 mmol/L, a Secretion [7, 9] of 0.057 µmol/kg/min and a Conc. [7, 10] of 1.88 mmol/L. The Secretion [7, 10] was 0.167 µmol/kg/min, the Conc. [7, 11] was 1.29 mmol/L and the Secretion [7, 11] was 0.150 µmol/kg/min. For the same compound, the Conc. [7, 12] was 0.79 mmol/L, the Secretion [7, 12] was 0.077 µmol/kg/min and the Conc. [7, 13] was 0.39 mmol/L. For the same compound, the Secretion [7, 13] was 0.033 µmol/kg/min, the Conc. [7, 14] was 0.27 mmol/L and the Secretion [7, 14] was 0.026 µmol/kg/min. It also gave a Conc. [7, 15] of 0.20 mmol/L, a Secretion [7, 15] of 0.015 µmol/kg/min and a Conc. [7, 16] of 1.9 mmol/L. It also gave a Secretion [7, 16] of 0.1 µmol/kg/min, a Conc. [7, 17] of 3.1 mmol/L and a Secretion [7, 17] of 0.23 µmol/kg/min. The Conc. [7, 18] was 3.4 mmol/L, the Secretion [7, 18] was 0.31 µmol/kg/min and the Conc. [7, 19] was 2.3 mmol/L. It also gave a Secretion [7, 19] of 0.2 µmol/kg/min, a Conc. [7, 20] of 1.06 mmol/L and a Secretion [7, 20] of 0.105 µmol/kg/min. The Conc. [7, 21] was 0.55 mmol/L, the Secretion [7, 21] was 0.049 µmol/kg/min and the Conc. [7, 22] was 0.27 mmol/L. The Secretion [7, 22] was 0.018 µmol/kg/min, the fraction unbound at 4 h [7] was 0.94 ± 0.06 and the fraction unbound at 4 h ([7]; iv) was 0.93.
